The results in this text go back to BindingDB's records for PubMed 10496952 (University of Virginia, 1999).

Structures are written as SMILES. Values joined by “and” are separate entries in the source; they are usually repeats but may differ in a detail not shown here. Identical values can stand only once.

One assay deals with T1, Adenosine receptor A2b (Homo sapiens, UniProt P29275).
T1 sequence (P29275 whole entry): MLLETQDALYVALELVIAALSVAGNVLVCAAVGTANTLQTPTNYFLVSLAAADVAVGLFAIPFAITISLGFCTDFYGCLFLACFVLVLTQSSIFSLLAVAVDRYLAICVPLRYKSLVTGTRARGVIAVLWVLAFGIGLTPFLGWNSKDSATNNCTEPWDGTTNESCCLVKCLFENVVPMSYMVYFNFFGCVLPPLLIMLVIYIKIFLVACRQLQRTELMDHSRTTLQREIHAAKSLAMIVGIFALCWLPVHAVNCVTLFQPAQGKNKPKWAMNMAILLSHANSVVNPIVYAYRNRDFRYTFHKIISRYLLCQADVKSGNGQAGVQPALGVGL

A further assay has as its target T2, Adenosine receptor A3 (Homo sapiens, UniProt P0DMS8).
T2 sequence (P0DMS8 whole entry): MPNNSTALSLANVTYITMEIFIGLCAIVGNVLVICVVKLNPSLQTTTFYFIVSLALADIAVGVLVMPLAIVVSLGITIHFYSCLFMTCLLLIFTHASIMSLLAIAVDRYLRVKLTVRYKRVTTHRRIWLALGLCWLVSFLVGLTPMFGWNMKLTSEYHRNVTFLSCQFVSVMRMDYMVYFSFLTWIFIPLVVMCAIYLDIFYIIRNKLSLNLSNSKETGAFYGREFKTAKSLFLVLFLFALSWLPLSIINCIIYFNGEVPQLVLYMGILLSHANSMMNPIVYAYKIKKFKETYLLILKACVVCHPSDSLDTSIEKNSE

Another assay has as its target Adenosine receptor A2a (Homo sapiens, UniProt P29274).
The next assay addresses T3, Adenosine receptor A1 (Homo sapiens, UniProt P30542).
T3 sequence (P30542 whole entry): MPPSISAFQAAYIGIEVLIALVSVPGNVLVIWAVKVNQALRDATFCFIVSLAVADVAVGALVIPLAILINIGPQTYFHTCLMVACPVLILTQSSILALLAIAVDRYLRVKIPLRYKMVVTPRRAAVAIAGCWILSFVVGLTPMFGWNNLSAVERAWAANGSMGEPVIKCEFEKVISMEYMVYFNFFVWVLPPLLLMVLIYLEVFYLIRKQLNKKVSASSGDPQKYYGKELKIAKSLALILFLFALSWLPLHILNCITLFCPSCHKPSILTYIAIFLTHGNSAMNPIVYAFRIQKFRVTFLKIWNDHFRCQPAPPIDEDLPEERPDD

Sequence of Adenosine receptor A2a (P29274 whole entry): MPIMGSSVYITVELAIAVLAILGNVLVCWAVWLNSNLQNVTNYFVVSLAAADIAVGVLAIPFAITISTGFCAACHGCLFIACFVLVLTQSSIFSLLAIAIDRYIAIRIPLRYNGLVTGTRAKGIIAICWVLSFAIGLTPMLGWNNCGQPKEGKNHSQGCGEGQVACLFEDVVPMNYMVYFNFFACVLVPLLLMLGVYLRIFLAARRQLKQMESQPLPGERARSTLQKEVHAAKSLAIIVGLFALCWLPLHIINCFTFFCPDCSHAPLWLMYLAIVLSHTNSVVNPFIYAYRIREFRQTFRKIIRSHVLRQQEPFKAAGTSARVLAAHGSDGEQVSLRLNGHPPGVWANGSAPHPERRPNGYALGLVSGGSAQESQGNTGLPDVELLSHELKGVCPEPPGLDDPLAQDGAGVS

Consider `CCNC(=O)C(=O)Nc1nc(Nc2ccccc2)c2ncn([C@@H]3O[C@H](CO)[C@@H](O)[C@H]3O)c2n1` [AB-NECA], for which, at Adenosine receptor A2b, the inhibition constant Ki was above 10 µM. The same measure, in the same setting: as for `Nc1ccc(CCNc2nc(N)c3ncn(C4OC(CO)C(O)C4O)c3n2)cc1I` (stereo unspecified) [CAS_190964], the figure is above 10 µM. `CCCn1c(=O)c2[nH]c(-c3ccc(C=CC(=O)O)cc3)nc2n(CCC)c1=O` [NSC_129447] registered a Ki at Adenosine receptor A2b of 0.0516 µM.

On to `CCCn1c(=O)c2nc[nH]c2n(CCC)c1=O`, for which the inhibition constant Ki on Adenosine receptor A3 amounted to 0.509 µM.

On to `CCCn1c(=O)c2nc(-c3ccc(OCC(=O)O)cc3)[nH]c2n(Cc2ccc(N)c(I)c2)c1=O` [NSC_163889], for which the Ki at Adenosine receptor A2a was 0.095 µM; on Adenosine receptor A2b, 0.04 µM and 0.03 µM; on Adenosine receptor A1, 0.07 µM; on Adenosine receptor A3, 0.015 µM. For `Nc1nc(Cl)nc2c1ncn2[C@@H]1O[C@H](CO)[C@H](O)C1O` (stereo partly specified) [2-Chloroadenosine], on Adenosine receptor A2b, the Ki was above 10 µM. In turn, `CCn1c(=O)c2[nH]c(-c3ccccc3)nc2n(CC)c1=O` [1,3-Diethyl-8-phenyl-3,7-dihydro-purine-2,6-dione] returned a Ki at Adenosine receptor A2b of 0.0123 µM. Consider `CCCn1c(=O)[nH]c(=O)c2[nH]cnc21` [3-Propylxanthine (enprofylline)], for which the Ki at Adenosine receptor A1 is above 10 µM.

The term Ki denotes a measure of affinity in units of concentration, obtained from inhibition or displacement. Higher therefore signals a looser hold on the target.
